Values of other authors as cited in paper PMC7886095 (Drug Design, Development and Therapy, 2021).

Structure (SMILES): COc1cc(O)c2c(=O)cc(-c3ccc(O)cc3)oc2c1 [GKA, Genkwanin]
- aqueous solubility: < 1 µg/mL
